Paper PMC6237300, “Influenza B viruses circulated during last 5 years in Mongolia” (PLoS ONE, 2018)

Tests used:
[1] = target: NA of B/Ulaanbaatar/1113/2014 (I114T) (Influenza B virus, UniProt U5XBU0, I114T); type: biochemical
[2] = target: NA of B/Darkhan/1484/2014 (H101N, E105K) (Influenza B virus, UniProt U5XBU0, E105K/H101N); type: biochemical
[3] = target: NA of B/Ulaanbaatar/1495/2014 (E105K) (Influenza B virus, UniProt U5XBU0, E105K); type: biochemical
[4] = target: NA of B/Khentii/1137/2014 (G140R) (Influenza B virus, UniProt U5XBU0, G140R); type: biochemical
[5] = target: NA of B/Ulaanbaatar/1708/2014 (G104R) (Influenza B virus, UniProt U5XBU0, G104R); type: biochemical
[6] = system: neuraminidase of the influenza B virus with H273Y mutation; conditions: cited from earlier work

[H]/N=C(\N)N[C@H]1C=C(C(=O)O)O[C@@H]([C@H](OC)[C@H](O)CO)[C@@H]1NC(C)=O [Laninamivir, laninamivir]
susceptibility category [1]: sensitive
susceptibility category [2]: reduced susceptibility
susceptibility category [3]: reduced susceptibility
susceptibility category [4]: sensitive

CCC(CC)[C@H](NC(C)=O)[C@@H]1[C@H](O)[C@@H](C(=O)O)C[C@H]1N=C(N)N [Peramivir, peramivir]
Fold increase [1]: 10
IC50 [1]: 11.8 nM
susceptibility category [1]: reduced susceptibility
Fold increase [2]: 2500
IC50 [2]: 1530 nM
susceptibility category [2]: highly reduced susceptibility
Fold increase [3]: 5000
IC50 [3]: 3270 nM
susceptibility category [3]: highly reduced susceptibility
Fold increase [4]: 10
IC50 [4]: 7.18 nM
susceptibility category [4]: reduced susceptibility
Fold increase [5]: >100000
IC50 [5]: 288000 nM
resistance of H273Y mutant [6]: resistant
